# According to patent US9462805B2, “Herbicide-resistant proteins, encoding genes, and uses thereof” (Beijing Dabeinong Technology Group Co., Ltd., priority 2012, dated 2016):
# Key:
# [1] = system: corn plants transfected with 24DT02 added nucleotide sequence; assay: Herbicide-resistance effect test of transgenic corn plants (added 24DT02; strains S8, S9); assay type: in vivo, maize; conditions: 8960 g ae/ha sprayed, 21 days after spraying; for Abnormal development of prop roots / Normal development of prop roots: number of plants
# Method: (§1) Herbicide resistance effects tests to 2,4-D dimethyl ammonium salt and agroxone of maize plants containing 24DT02 nucleotide sequence, 24DT02 substituted nucleotide sequence, 24DT02 truncated nucleotide sequence, 24DT02 added nucleotide sequence, control nucleotide sequence respectively and wild type maize plants (stages V3-V4) were performed respectively.
# (§2) Maize plants containing 24DT02 nucleotide sequence, 24DT02 substituted nucleotide sequence, 24DT02 truncated nucleotide sequence, 24DT02 added nucleotide sequence, control nucleotide sequence respectively and wild type maize plants were taken and spayed with 2,4-D dimethyl ammonium salt (8960 g ae/ha, 16-folds concentration in field), agroxone (8960 g ae/ha, 16-folds concentration in field) and blank solvent (water) respectively. Prop root development was counted 21 days after spaying. Three strains (S1, S2, and S3) of corn plants transfected with 24DT02 nucleotide sequence, two strains (S4 and S5) of corn plants transfected with 24DT02 substituted nucleotide sequence, two strains (S6 and S7) of corn plants transfected with 24DT02 truncated nucleotide sequence, two strains (S8 and S9) of corn plants transfected with 24DT02 added nucleotide sequence, two strains (S10 and S11) of corn plants transfected with control nucleotide sequence and 1 strain of wild type (CK) corn were selected and 10-15 plants from each stain were tested.
# [2] = system: corn plants transfected with 24DT02 nucleotide sequence; assay: Herbicide-resistance effect test of transgenic corn plants (24DT02; strains S1-S3); assay type: in vivo, maize; conditions: 21 days after spraying; for Normal development of prop roots / Abnormal development of prop roots: number of plants
# Method: as §1, §2
# [3] = system: Arabidopsis T1 plants transformed with added 24DT02 nucleotide sequence; assay: Herbicide resistance effect test of transgenic Arabidopsis T1 plants (24DT02-a); assay type: in vivo, Arabidopsis thaliana; conditions: number of T1 plants, genotype 24DT02-a, 560 g ae/ha sprayed; for Moderately resistant: curly rosette leaves 7 days after spraying; for Non-resistant: dead 14 days after spraying; for Highly resistant: growth consistent with blank solvent 7 days after spraying; for Lowly resistant: incapable of bolting 14 days after spraying
# Method: (§3) On 7 days after planting (DAP) and 11 DAP respectively, the T1 plants (cotyledon stage and 2-4 leaves stage, respectively) were sprayed with 0.2% of Liberty herbicide solution (200 g ai/L glufosinate-ammonium) using DeVilbiss compressed air nozzle at a spraying volume of 10 ml/disc (703 L/ha) so as to provide effective amount of glufosinate-ammonium (280 g ai/ha) for each application. The survival plants (actively growing plants) were verified 4 to 7 days after the last spraying and transferred into the square pot (7 cm×7 cm) made from vermiculite and horses dung (3-5 plants per pot). The transplanted plants were covered with moisturizing mask for 3-4 days and placed in culture room at 22° C. or directly into the greenhouse as described above. Then the mask was removed and the plants were planted in greenhouse (22±5° C., 50±30% RH, 14 hours of lighting: 10 hours of darkness, minimum […] natural light+complement light) at least one day before testing the ability of 24DT02 to provide the resistance to phenoxy auxin herbicide.
# (§4) 24DT02 gene was used to transform Arabidopsis for the first time. At first, T1 transformants were selected from the background of un-transformed seeds, using glufosinate-ammonium selection scheme. About 40000 T1 seeds were screened among which 195 strains of T1 generation positive transformants (PAT gene) were identified, i.e. the transformation efficiency was about 0.5%. Herbicide resistance effect tests to 2,4-D dimethyl ammonium salt and agroxone of Arabidopsis T1 plants transformed with 24DT02 nucleotide sequence, substituted 24DT02 nucleotide sequence, truncated 24DT02 nucleotide sequence, added 24DT02 nucleotide sequence, control nucleotide sequence respectively and wild-type Arabidopsis plants were performed after 18 days of planting.
# (§5) Arabidopsis T1 plants transformed with 24DT02 nucleotide sequence, substituted 24DT02 nucleotide sequence, truncated 24DT02 nucleotide sequence, added 24DT02 nucleotide sequence and control nucleotide sequence respectively and wild-type Arabidopsis plants were sprayed with 2,4-D dimethyl ammonium salt (560 g ae/ha, 1-fold concentration in field), agroxone (560 g ae/ha, 1-fold concentration in field) and blank solvent (water). Resistance conditions of the plants were counted 7 days and 14 days after spraying. Plants with growth conditions consistent with blank solvent (water) 7 days after spaying were classified as highly resistant plants; Plants with curly rosette leaves 7 days after spaying were classified as moderately resistant plants; Plants incapable of bolting 14 days after spaying were classified as low-resistant plants and the dead plants 14 days after spaying were classified as non-resistant plants. Because each Arabidopsis T1 plant was an independent transformation event, significant differences of individual T1 responses were expected under a given dose.
# [4] = system: corn plants transfected with 24DT02 truncated nucleotide sequence; assay: Herbicide-resistance effect test of transgenic corn plants (truncated 24DT02; strains S6, S7); assay type: in vivo, maize; conditions: 8960 g ae/ha sprayed, 21 days after spraying; for Abnormal development of prop roots / Normal development of prop roots: number of plants
# Method: as §1, §2
# [5] = system: Arabidopsis T1 plants transformed with substituted 24DT02 nucleotide sequence; assay: Herbicide resistance effect test of transgenic Arabidopsis T1 plants (24DT02-i); assay type: in vivo, Arabidopsis thaliana; conditions: number of T1 plants, genotype 24DT02-i, 560 g ae/ha sprayed; for Moderately resistant: curly rosette leaves 7 days after spraying; for Non-resistant: dead 14 days after spraying; for Highly resistant: growth consistent with blank solvent 7 days after spraying; for Lowly resistant: incapable of bolting 14 days after spraying
# Method: as §3, §4, §5
# [6] = system: corn plants transfected with 24DT02 substituted nucleotide sequence; assay: Herbicide-resistance effect test of transgenic corn plants (substituted 24DT02; strains S4, S5); assay type: in vivo, maize; conditions: 8960 g ae/ha sprayed, 21 days after spraying; for Abnormal development of prop roots / Normal development of prop roots: number of plants
# Method: as §1, §2
# [7] = system: corn plants transfected with control nucleotide sequence; assay: Herbicide-resistance effect test of corn plants (control sequence; strains S10, S11); assay type: in vivo, maize; conditions: 8960 g ae/ha sprayed, 21 days after spraying; for Abnormal development of prop roots / Normal development of prop roots: number of plants
# Method: as §1, §2
# [8] = system: Arabidopsis T1 plants transformed with control nucleotide sequence; assay: Herbicide resistance effect test of Arabidopsis T1 plants (control sequence); assay type: in vivo, Arabidopsis thaliana; conditions: number of T1 plants, 560 g ae/ha sprayed; for Highly resistant: genotype Control (control sequence), growth consistent with blank solvent 7 days after spraying; for Moderately resistant / Non-resistant / Lowly resistant: genotype Control; for Moderately resistant: curly rosette leaves 7 days after spraying; for Non-resistant: dead 14 days after spraying; for Lowly resistant: incapable of bolting 14 days after spraying
# Method: as §3, §4, §5
# [9] = corn strain S1 (24DT02), 8960 g ae/ha sprayed
# [10] = corn strain S2 (24DT02), 8960 g ae/ha sprayed
# [11] = corn strain S3 (24DT02), 8960 g ae/ha sprayed
# [12] = corn strain S1 (24DT02), 8960 g ae/ha (16-fold field concentration) sprayed at V3-V4
# [13] = corn strain S6 (truncated 24DT02)
# [14] = corn strain S7 (truncated 24DT02)
# [15] = corn strain S4 (substituted 24DT02)
# [16] = corn strain S5 (substituted 24DT02)
# [17] = corn strain S10 (control sequence)
# [18] = corn strain S11 (control sequence)
structure (smiles),measurement,setting,value
"CNC.O=C(O)COc1ccc(Cl)cc1Cl [2,4-D dimethyl ammonium salt]",Ratio of the normally developed prop roots,[1]; corn strain S8 (added 24DT02),80.00%
same,Ratio of the normally developed prop roots,[1]; corn strain S9 (added 24DT02),78.57%
same,Abnormal development of prop roots,[1]; corn strain S8 (added 24DT02),3
same,Normal development of prop roots,[1]; corn strain S8 (added 24DT02),12
same,Abnormal development of prop roots,[1]; corn strain S9 (added 24DT02),3
same,Normal development of prop roots,[1]; corn strain S9 (added 24DT02),11
same,Ratio of the normally developed prop roots,[2]; [9],81.25%
same,Ratio of the normally developed prop roots,[2]; [10],91.67%
same,Ratio of the normally developed prop roots,[2]; [11],85.71%
same,Normal development of prop roots,[2]; [12],13
same,Abnormal development of prop roots,[2]; [9],3
same,Abnormal development of prop roots,[2]; [10],1
same,Normal development of prop roots,[2]; [10],11
same,Abnormal development of prop roots,[2]; [11],2
same,Normal development of prop roots,[2]; [11],12
same,Moderately resistant,[3],3
same,Non-resistant,[3],3
same,Highly resistant,[3],10
same,Lowly resistant,[3],2
same,Ratio of the normally developed prop roots,[4]; [13],86.67%
same,Ratio of the normally developed prop roots,[4]; [14],92.86%
same,Abnormal development of prop roots,[4]; [13],2
same,Normal development of prop roots,[4]; [13],13
same,Abnormal development of prop roots,[4]; [14],1
same,Normal development of prop roots,[4]; [14],13
same,Moderately resistant,[5],4
same,Non-resistant,[5],4
same,Highly resistant,[5],8
same,Lowly resistant,[5],1
same,Ratio of the normally developed prop roots,[6]; [15],87.50%
same,Ratio of the normally developed prop roots,[6]; [16],100.00%
same,Abnormal development of prop roots,[6]; [15],2
same,Normal development of prop roots,[6]; [15],14
same,Abnormal development of prop roots,[6]; [16],0
same,Normal development of prop roots,[6]; [16],15
same,Ratio of the normally developed prop roots,[7]; [17],0%
same,Ratio of the normally developed prop roots,[7]; [18],0%
same,Abnormal development of prop roots,[7]; [17],10
same,Normal development of prop roots,[7]; [17],0
same,Abnormal development of prop roots,[7]; [18],11
same,Normal development of prop roots,[7]; [18],0
same,Highly resistant,[8],0
same,Moderately resistant,[8],0
same,Non-resistant,[8],18
same,Lowly resistant,[8],0
Cc1cc(Cl)ccc1OCC(=O)O [agroxone],Ratio of the normally developed prop roots,[1]; corn strain S8 (added 24DT02),86.67%
same,Ratio of the normally developed prop roots,[1]; corn strain S9 (added 24DT02),84.62%
same,Abnormal development of prop roots,[1]; corn strain S8 (added 24DT02),2
same,Normal development of prop roots,[1]; corn strain S8 (added 24DT02),13
same,Abnormal development of prop roots,[1]; corn strain S9 (added 24DT02),2
same,Normal development of prop roots,[1]; corn strain S9 (added 24DT02),11
same,Ratio of the normally developed prop roots,[2]; [9],87.50%
same,Ratio of the normally developed prop roots,[2]; [10],100.00%
same,Ratio of the normally developed prop roots,[2]; [11],92.31%
same,Normal development of prop roots,[2]; [12],14
same,Abnormal development of prop roots,[2]; [9],2
same,Abnormal development of prop roots,[2]; [10],0
same,Normal development of prop roots,[2]; [10],12
same,Abnormal development of prop roots,[2]; [11],1
same,Normal development of prop roots,[2]; [11],12
same,Moderately resistant,[3],5
same,Non-resistant,[3],3
same,Highly resistant,[3],8
same,Lowly resistant,[3],1
same,Ratio of the normally developed prop roots,[4]; [13],87.50%
same,Ratio of the normally developed prop roots,[4]; [14],86.67%
same,Abnormal development of prop roots,[4]; [13],2
same,Normal development of prop roots,[4]; [13],14
same,Abnormal development of prop roots,[4]; [14],2
same,Normal development of prop roots,[4]; [14],13
same,Moderately resistant,[5],5
same,Non-resistant,[5],6
same,Highly resistant,[5],9
same,Lowly resistant,[5],1
same,Ratio of the normally developed prop roots,[6]; [15],81.25%
same,Ratio of the normally developed prop roots,[6]; [16],93.33%
same,Abnormal development of prop roots,[6]; [15],3
same,Normal development of prop roots,[6]; [15],13
same,Abnormal development of prop roots,[6]; [16],1
same,Normal development of prop roots,[6]; [16],14
same,Ratio of the normally developed prop roots,[7]; [17],0%
same,Ratio of the normally developed prop roots,[7]; [18],0%
same,Abnormal development of prop roots,[7]; [17],10
same,Normal development of prop roots,[7]; [17],0
same,Abnormal development of prop roots,[7]; [18],10
same,Normal development of prop roots,[7]; [18],0
same,Highly resistant,[8],0
same,Moderately resistant,[8],0
same,Non-resistant,[8],17
same,Lowly resistant,[8],0
